Converted amounts (≈) assume the structure as drawn. The source made the active and inactive calls. The rule behind the calls is not given here.
Experiments:
[1] = Inhibition of vesperlysine-type advanced glycation end products formation using bovine serum albumin after 24 hrs by microtiter plate assay; format: functional
[2] = Inhibition of pentosidine-type advanced glycation end products formation using bovine serum albumin after 24 hrs by microtiter plate assay; format: functional
[3] = tested on: HUVEC; assay: Induction of E-selectin expression in HUVEC after 1 hr by flow cytometry analysis; format: cell-based; settings: human
[4] = tested on: HUVEC; assay: Antiinflammatory activity in HUVEC assessed as inhibition of HLA-E expression at 10 uM after 1 hr by flow cytometry analysis; format: functional, cell-based; settings: Homo sapiens
[5] = tested on: HUVEC; assay: Antiinflammatory activity in HUVEC assessed as inhibition of MICA expression at 10 uM after 1 hr by flow cytometry analysis; format: functional, cell-based; settings: Homo sapiens
[6] = tested on: HUVEC; assay: Antiinflammatory activity in HUVEC assessed as inhibition of HLA-I expression at 10 uM after 1 hr by flow cytometry analysis; format: functional, cell-based; settings: Homo sapiens
[7] = tested on: HUVEC; assay: Antiinflammatory activity in HUVEC assessed as inhibition of TNFalpha-induced E-selectin expression at 10 uM after 1 hr by flow cytometry analysis; format: functional, cell-based; settings: Homo sapiens
[8] = tested on: HUVEC; assay: Antiinflammatory activity in HUVEC assessed as inhibition of IFNgamma-induced HLA-II expression at 10 uM after 1 hr by flow cytometry analysis; format: functional; settings: Homo sapiens
[9] = tested on: HUVEC; assay: Induction of ICAM1 expression in HUVEC after 1 hr by flow cytometry analysis; format: cell-based; settings: human
[10] = tested on: HUVEC; assay: Antiinflammatory activity in HUVEC assessed as inhibition of TNFalpha-induced ICAM1 expression at 10 uM after 1 hr by flow cytometry analysis; format: functional; settings: Homo sapiens
[11] = tested on: HUVEC; assay: Antiinflammatory activity in HUVEC assessed as inhibition of TNFalpha-induced VCAM1 expression after 1 hr by flow cytometry analysis; format: functional, cell-based; settings: Homo sapiens
[12] = tested on: HUVEC; assay: Induction of VCAM1 expression in HUVEC after 1 hr by ELISA; format: cell-based; settings: human
[13] = tested on: HUVEC; assay: Cytotoxicity against TNFalpha-stimulated HUVEC at 10 uM after 6 hrs by MTT assay; format: cell-based; settings: human
[14] = tested on: HUVEC; assay: Antiinflammatory activity in HUVEC assessed as inhibition of TNFalpha-induced VCAM1 expression at 10 uM after 1 hr by flow cytometry analysis; format: functional; settings: Homo sapiens
[15] = tested on: HUVEC; assay: Antiinflammatory activity in HUVEC assessed as inhibition of IFNgamma-induced HLA-E expression at 10 uM after 1 hr by flow cytometry analysis; format: functional; settings: Homo sapiens

Row | SMILES | IC50 [1] [µg/mL] | IC50 [2] [µg/mL] | Activity [3] | inhibition [4] | inhibition [5] | inhibition [6] | inhibition [7] | inhibition at 10 µM [8] [%] | Activity [9] | inhibition at 10 µM [10] [%] | IC50 [11] [µM] | Activity [12] | Activity [13] | inhibition at 10 µM [14] [%] | inhibition at 10 µM [15] [%]
1 | N=C(N)NN [PIMAGEDINE] | 700 (≈ 9.45 mM) | 150 (≈ 2.02 mM) |  |  |  |  |  |  |  |  |  |  |  |  | 
2 | CC(C)=CCC1(CC=C(C)C)C(=O)c2c(-c3ccccc3)cc(=O)oc2C(C(=O)C(C)C)=C1O |  |  | Non-toxic | Active | Active | inactive | inactive | ≤ 95 | Non-toxic | ≤ 23 | 10.2 | Non-toxic | Non-toxic | ≤ 52 | ≤ 95
